The NIST ThermoML archive (doi:10.1016/j.jct.2015.10.001)

How the values were obtained:
[1] = 101.33 kPa, Liquid; for electrical conductivity: Direct current cell with electrodes; for mass density: Vibrating tube method
[2] = mn = molality of the nth substance listed, in mol/kg; settings: 100 kPa, Liquid, Capillary tube (Ostwald / Ubbelohde) method, m2 = 0

CCCCn1cc[n+](C)c1.O=C([O-])c1ccccc1O [1-butyl-3-methylimidazolium salicylate]
[1], Cone and plate viscometry
Settings | viscosity [mPa·s]
293.15 K | 1194.1
298.15 K | 777.63
303.15 K | 501.42
308.15 K | 338.14
313.15 K | 240
318.15 K | 167.97
323.15 K | 127.06

[1]
Settings | electrical conductivity [S/m] | mass density [kg/m3]
293.15 K | 0.0182 | 1152.27
298.15 K | 0.0281 | 1149.05
303.15 K | 0.0447 | 1145.65
308.15 K | 0.0692 | 1142.22
313.15 K | 0.0965 | 1138.76
318.15 K | 0.156 | –
323.15 K | 0.22 | –

O [water]
[1], Capillary tube (Ostwald / Ubbelohde) method
Settings | viscosity [mPa·s]
293.15 K | 1.003
298.15 K | 0.89
303.15 K | 0.797
308.15 K | 0.719
313.15 K | 0.653

O [water] + CCCCn1cc[n+](C)c1.O=C([O-])c1ccccc1O
[2]
Settings | viscosity [mPa·s]
293.15 K | 1.003
298.15 K | 0.89
303.15 K | 0.797
308.15 K | 0.719
313.15 K | 0.653
